Measured values as given in ChEMBL document CHEMBL1201862, “PubChem BioAssay data set” (2004).
Active and inactive are the calls of the source.

What was measured:
[1] = target: T1, Rac GTPase-activating protein 1 (Homo sapiens, UniProt Q9H0H5); experiment: MgcRacGAP GTPase-activating activity inhibitors, confirmation, biochemical, ADP Hunter fluorescence, primary and confirmatory (AID 624330); format: functional
T1 sequence (Q9H0H5 whole entry): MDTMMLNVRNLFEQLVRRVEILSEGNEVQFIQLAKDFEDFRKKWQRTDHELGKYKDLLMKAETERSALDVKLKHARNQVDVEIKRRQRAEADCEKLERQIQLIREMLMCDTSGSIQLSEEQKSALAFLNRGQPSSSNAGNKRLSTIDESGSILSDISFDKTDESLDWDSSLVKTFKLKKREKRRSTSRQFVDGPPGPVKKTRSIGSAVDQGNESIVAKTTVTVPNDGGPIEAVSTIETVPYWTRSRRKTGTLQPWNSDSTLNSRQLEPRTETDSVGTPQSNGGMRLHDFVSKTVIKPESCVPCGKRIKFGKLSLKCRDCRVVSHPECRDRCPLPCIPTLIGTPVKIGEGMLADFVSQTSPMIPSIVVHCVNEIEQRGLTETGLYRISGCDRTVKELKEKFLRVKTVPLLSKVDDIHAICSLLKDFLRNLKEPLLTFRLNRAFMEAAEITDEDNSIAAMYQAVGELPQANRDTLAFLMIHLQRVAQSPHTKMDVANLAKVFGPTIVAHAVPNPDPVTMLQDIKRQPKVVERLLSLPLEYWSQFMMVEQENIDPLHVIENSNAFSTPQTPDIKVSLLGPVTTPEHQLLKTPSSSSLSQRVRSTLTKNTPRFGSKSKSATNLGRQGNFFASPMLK

Protein Tat = Protein Tat (Human immunodeficiency virus type 1 group M subtype B (isolate HXB2)(HIV-1), UniProt P04608); format: functional;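 also: tat binding to TAR RNA read out by fluorescence polarization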
Paired box protein Pax-8 = Paired box protein Pax-8 (Homo sapiens, UniProt Q06710); experiment: inhibitors of PAX8-driven TPO luciferase reporter, dose response, RMG-I cells, cherry-pick (AID 687027); format: functional, cell-based;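 also: luciferase reporter driven by Pax8 target thyroperoxidase promoter measured by SteadyGlo luminescence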
[2] = IOSE-T80 ovarian epithelial cell cytotoxicity, dose response, cytotoxicity control for PAX8 inhibitor project, plate reader, dry powder samples (AID 743045); format: functional, cell-based
[3] = A2780 ovarian cancer cell cytotoxicity, dose response, cytotoxicity control, plate reader, dry powder samples (AID 743046); format: functional, cell-based
[4] = NIH:OVCAR-3 ovarian cancer cell cytotoxicity, dose response, PAX8 inhibitor project, plate reader, dry powder samples (AID 743044); format: functional, cell-based
[5] = IGROV1 ovarian cancer cell cytotoxicity, dose response, PAX8 inhibitor project, plate reader, dry powder samples (AID 743043); format: functional, cell-based; conditions: IGROV-1
[6] = cytotoxicity in OVCAR8 ovarian cancer cells, dose response, PAX8 project, cell-based, plate reader, dry powder samples (AID 743197); format: functional; conditions: OVCAR-8
[7] = Shn3 3'UTR reporter inhibitors, dose response, cell-based, Clone20 osteoblasts, firefly luciferase, cherry-picked (AID 624132); format: functional;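 also: firefly luciferase luminescence from reporter carrying the Shn3 3'UTR in osteoblasts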
[8] = control 3'UTR Renilla luciferase suppression, dose response, counter-screen for Shn3 inhibitor project, cell-based, Clone20-Shn3RL, cherry-picked (AID 624133); format: functional
[9] = target: COUP transcription factor 2 (Homo sapiens, UniProt P24468); experiment: Luminescence-based cell-based high throughput dose response assay to identify inhibitors of COUP-TFII (NR2F2).; format: functional;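 also: HEK293 cells transiently cotransfected with COUP-TFII expression vector and reporter; luciferase reporter luminescence driven by COUP-TFII from the pX2-168 reporter plasmid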
[10] = A549 cell cytotoxicity, dose response, cytotoxicity control, plate reader, cherry-pick, antagonist series (AID 743412); format: functional, cell-based
[11] = HepG2 cell cytotoxicity, dose response, cytotoxicity control, plate reader, cherry-pick, antagonist series (AID 743416); format: functional, cell-based
[12] = LGR2 antagonists, dose response, cell-based, HEK293, CRE-luciferase reporter, cherry pick, set 2 (AID 743343); format: functional;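 also: transfected cells were stimulated with diluted bursicon conditioned medium after compound addition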
[13] = MC4R antagonists, dose response, counter-screen for LGR2 antagonist project, cell-based, plate reader, cherry pick (AID 743444); format: functional;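 also: transfected HEK 293 cells stimulated with alpha-MSH peptide; potency of inhibitors of the alpha-MSH evoked signal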
[14] = HEK293 cell cytotoxicity, dose response, cytotoxicity control, plate reader, cherry-picked samples (AID 743446); format: functional, cell-based
[15] = P. falciparum Dd2 growth inhibitors, dose response, SYBR Green, dry powder samples, set 9 (AID 1159568); format: functional, cell-based
[16] = Concentration-dependent survival of SW480 colon cancer line, luminescence detection with CellTiter-Glo, half-maximal inhibitory concentration (AID 1117338); format: functional
[17] = RKO cell viability reduction, dose response, CellTiter-Glo luminescence (AID 1117322); format: functional
[18] = cytotoxicity toward HCT116 cells – cell-based, CellTiter-Glo luminescence, IC50, dose response (AID 1117332); format: functional; conditions: HCT-116
[19] = SNU-C1 cell viability reduction, dose response, CellTiter-Glo luminescence (AID 1117323); format: functional, cell-based
[20] = cytotoxicity toward Colo320 cells – cell-based, CellTiter-Glo luminescence, IC50, dose response (AID 1117334); format: functional; conditions: COLO 320
[21] = cytotoxicity toward HT-29 cells – cell-based, CellTiter-Glo luminescence, IC50, dose response (AID 1117330); format: functional
[22] = CellTiter-Glo luminescent dose response of DLD-1 viability loss (AID 1117352); format: functional
[23] = P. falciparum 3D7-ScDHODH growth inhibitors, dose response, SYBR Green, dry powder samples (AID 1159570); format: functional, cell-based;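 also: parasite growth measured after 72 hours of compound exposure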
[24] = P. falciparum Dd2 growth inhibitors, dose response, SYBR Green, cherry-picked samples (AID 1159567); format: functional, cell-based
[25] = P. falciparum Dd2 growth inhibitors, dose response, SYBR Green, dry powder samples (AID 1159566); format: functional, cell-based;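 also: potency for growth inhibition with lower SYBR green DNA signal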
[26] = P. falciparum ATP4 D1247Y mutant growth inhibitors, dose response, NITD609-resistant line, SYBR Green, dry powder (AID 1159571); format: functional, cell-based;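 also: parasites synchronized at ring stage by sorbitol before testing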
[27] = Luminescence-based cell-based high throughput dose response assay to identify activators of the DAF-12 from the parasite S. stercoralis (ssDAF-12).; format: functional
[28] = target: T2, Oxysterols receptor LXR-beta (Homo sapiens, UniProt P55055); experiment: LXR agonists, Gal4 luciferase reporter, dose response, counter-screen for ssDAF-12 agonist project, cell-based, luminescence, HEK293, S. stercoralis campaign (AID 720737); format: functional; conditions: read-out: IC50 (the source's name)
T2 sequence (P55055 whole entry): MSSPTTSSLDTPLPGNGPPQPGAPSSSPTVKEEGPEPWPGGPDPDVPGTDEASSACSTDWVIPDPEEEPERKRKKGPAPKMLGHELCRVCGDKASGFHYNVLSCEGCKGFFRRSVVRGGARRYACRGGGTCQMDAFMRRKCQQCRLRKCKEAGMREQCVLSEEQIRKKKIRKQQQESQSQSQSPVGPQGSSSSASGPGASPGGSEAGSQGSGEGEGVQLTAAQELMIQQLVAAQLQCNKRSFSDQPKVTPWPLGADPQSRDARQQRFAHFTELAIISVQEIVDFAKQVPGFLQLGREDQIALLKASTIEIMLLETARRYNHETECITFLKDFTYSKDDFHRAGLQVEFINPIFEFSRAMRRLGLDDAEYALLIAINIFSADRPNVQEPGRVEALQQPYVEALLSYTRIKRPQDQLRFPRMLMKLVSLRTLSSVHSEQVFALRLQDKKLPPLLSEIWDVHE

[29] = target: Bifunctional protein GlmU (Mycobacterium tuberculosis, UniProt P9WMN3); experiment: Inhibitors of Mycobacterial Glucosamine-1-phosphate acetyl transferase (GlmU). Secondary screen.; set-up: species or system Mycobacterium tuberculosis H37Rv
[30] = target: 1-phosphatidylinositol 4,5-bisphosphate phosphodiesterase gamma-1 (Homo sapiens, UniProt P19174); experiment: Counterscreen for inhibitors of phospholipase C isozymes (PLC-B3): Fluorescence-based biochemical high throughput dose response assay to identify inhibitors of phospholipase C isozymes (PLC-gamma1).
[31] = target: 1-phosphatidylinositol 4,5-bisphosphate phosphodiesterase beta-3 (Homo sapiens, UniProt Q01970); experiment: Fluorescence-based biochemical high throughput dose response assay to identify inhibitors of phospholipase C isozymes (PLC-B3).
Sequence of 1-phosphatidylinositol 4,5-bisphosphate phosphodiesterase beta-3 (Q01970 whole entry): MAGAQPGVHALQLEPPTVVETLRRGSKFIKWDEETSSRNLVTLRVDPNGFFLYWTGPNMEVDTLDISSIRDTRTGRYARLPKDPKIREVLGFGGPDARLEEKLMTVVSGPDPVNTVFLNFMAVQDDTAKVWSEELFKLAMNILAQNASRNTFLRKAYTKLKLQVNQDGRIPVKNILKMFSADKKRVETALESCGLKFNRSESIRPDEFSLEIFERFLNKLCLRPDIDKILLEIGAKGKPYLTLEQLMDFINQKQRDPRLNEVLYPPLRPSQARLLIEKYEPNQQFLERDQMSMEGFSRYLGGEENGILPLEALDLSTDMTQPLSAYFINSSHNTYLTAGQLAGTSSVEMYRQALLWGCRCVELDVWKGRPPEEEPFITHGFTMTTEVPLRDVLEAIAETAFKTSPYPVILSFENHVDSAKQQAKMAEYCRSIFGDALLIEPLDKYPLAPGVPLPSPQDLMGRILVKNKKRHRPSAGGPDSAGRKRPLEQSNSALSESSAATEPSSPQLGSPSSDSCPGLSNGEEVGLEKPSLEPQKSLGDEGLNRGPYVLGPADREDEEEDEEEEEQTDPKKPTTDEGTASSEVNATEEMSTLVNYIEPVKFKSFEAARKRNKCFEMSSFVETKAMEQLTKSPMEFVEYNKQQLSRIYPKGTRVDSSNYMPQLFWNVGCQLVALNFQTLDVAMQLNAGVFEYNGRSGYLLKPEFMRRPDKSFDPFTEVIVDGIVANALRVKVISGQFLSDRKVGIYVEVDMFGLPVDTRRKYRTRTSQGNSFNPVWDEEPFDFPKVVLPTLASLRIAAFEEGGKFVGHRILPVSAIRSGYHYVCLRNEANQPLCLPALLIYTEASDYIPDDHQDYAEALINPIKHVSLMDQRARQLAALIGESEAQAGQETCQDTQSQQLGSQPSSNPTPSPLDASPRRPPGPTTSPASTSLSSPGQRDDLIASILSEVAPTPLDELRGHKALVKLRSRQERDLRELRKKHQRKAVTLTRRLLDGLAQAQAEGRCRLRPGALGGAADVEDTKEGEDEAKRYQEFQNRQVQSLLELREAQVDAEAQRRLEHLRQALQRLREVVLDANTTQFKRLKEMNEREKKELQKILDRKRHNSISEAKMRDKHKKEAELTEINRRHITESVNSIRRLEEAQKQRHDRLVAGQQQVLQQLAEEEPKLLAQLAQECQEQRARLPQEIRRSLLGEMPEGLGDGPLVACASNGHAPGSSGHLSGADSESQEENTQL

Sequence of Paired box protein Pax-8 (Q06710 whole entry): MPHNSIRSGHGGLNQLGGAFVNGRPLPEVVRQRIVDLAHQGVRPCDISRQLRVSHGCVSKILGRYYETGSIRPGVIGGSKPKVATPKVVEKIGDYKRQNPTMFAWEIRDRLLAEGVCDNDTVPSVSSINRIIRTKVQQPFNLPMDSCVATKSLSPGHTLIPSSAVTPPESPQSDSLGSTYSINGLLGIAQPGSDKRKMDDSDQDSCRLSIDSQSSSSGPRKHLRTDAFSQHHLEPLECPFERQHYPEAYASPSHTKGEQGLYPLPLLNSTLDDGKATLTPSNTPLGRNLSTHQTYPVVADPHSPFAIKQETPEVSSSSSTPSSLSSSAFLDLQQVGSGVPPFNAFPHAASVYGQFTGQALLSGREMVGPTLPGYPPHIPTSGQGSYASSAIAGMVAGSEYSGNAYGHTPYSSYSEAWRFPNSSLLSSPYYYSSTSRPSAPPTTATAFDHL
Sequence of Protein Tat (P04608 whole entry): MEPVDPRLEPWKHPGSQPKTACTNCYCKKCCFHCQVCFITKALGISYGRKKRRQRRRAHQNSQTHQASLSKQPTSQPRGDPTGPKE
Sequence of Bifunctional protein GlmU (P9WMN3 whole entry): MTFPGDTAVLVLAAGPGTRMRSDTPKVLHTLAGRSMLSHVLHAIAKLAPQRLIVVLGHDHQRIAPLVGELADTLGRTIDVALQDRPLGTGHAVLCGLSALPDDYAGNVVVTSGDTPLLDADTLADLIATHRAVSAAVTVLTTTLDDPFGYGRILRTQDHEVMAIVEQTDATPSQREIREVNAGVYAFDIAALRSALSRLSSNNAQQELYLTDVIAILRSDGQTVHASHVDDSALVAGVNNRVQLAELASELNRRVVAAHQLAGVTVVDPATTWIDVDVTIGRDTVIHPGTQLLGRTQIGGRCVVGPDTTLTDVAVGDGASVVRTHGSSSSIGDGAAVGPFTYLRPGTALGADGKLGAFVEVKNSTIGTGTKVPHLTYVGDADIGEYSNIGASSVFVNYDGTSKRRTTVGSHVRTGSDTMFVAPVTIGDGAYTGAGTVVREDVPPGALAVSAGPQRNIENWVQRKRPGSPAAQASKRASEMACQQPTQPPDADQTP
Sequence of COUP transcription factor 2 (P24468 whole entry): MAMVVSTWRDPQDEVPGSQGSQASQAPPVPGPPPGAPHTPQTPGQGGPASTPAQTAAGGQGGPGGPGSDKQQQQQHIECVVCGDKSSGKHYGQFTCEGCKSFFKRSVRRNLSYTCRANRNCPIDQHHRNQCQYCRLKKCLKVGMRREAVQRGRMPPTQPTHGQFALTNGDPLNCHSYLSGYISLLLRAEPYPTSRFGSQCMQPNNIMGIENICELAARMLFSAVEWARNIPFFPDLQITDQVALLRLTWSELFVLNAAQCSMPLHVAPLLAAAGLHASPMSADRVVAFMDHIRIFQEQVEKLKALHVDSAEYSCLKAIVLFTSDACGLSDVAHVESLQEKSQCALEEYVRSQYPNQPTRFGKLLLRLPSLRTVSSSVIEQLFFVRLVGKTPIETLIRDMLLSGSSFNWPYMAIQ
Sequence of 1-phosphatidylinositol 4,5-bisphosphate phosphodiesterase gamma-1 (P19174 whole entry): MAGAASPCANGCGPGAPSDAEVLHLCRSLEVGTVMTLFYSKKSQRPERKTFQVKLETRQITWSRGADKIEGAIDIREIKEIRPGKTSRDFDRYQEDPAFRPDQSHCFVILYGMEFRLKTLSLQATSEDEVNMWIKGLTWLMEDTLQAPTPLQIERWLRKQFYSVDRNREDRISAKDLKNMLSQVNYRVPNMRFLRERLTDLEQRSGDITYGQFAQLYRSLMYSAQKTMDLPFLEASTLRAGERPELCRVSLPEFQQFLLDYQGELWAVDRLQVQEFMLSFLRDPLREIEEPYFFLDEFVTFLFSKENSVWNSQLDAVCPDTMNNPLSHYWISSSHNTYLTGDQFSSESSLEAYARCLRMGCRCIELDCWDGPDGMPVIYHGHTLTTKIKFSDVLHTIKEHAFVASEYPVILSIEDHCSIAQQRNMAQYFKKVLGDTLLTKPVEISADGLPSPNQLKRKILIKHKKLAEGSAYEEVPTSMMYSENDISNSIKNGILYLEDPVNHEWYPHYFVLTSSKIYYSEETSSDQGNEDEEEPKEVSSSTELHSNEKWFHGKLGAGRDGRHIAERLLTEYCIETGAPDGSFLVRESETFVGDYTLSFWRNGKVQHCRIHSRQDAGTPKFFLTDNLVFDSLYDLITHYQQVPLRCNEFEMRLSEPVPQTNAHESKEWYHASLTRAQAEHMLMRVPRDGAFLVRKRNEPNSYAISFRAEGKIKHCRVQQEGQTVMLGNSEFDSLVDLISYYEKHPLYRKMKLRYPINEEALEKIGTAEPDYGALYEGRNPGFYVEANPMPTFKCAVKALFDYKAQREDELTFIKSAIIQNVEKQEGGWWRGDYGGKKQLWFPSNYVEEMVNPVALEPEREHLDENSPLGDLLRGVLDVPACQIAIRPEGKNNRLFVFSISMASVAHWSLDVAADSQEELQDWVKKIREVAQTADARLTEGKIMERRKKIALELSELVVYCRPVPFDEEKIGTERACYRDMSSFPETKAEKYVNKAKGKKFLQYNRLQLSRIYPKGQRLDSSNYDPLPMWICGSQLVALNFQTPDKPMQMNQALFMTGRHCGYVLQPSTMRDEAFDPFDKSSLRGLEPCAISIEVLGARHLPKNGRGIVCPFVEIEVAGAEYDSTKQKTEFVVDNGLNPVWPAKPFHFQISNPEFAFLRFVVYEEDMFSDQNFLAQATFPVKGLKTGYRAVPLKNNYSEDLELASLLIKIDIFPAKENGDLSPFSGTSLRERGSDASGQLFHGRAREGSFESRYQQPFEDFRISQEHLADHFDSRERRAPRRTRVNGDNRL

Question: For `COc1ccc(N2C(=O)CC(Nc3ccc(N4CCOCC4)cc3)C2=O)c(OC)c1` (stereo unspecified), which IC50 [1] is on record?
Answer: 174 µM (active)

Question: What about the IC50 (Protein Tat) of the same compound?
Answer: 12.4 µM (inconclusive)

Question: Which results are given for `C[C@H]1CN([C@@H](C)CO)S(=O)(=O)c2ccc(C#Cc3ccncc3)cc2O[C@@H]1CN(C)C(=O)Nc1ccc2c(c1)OCO2`?
Answer: AC50 (Paired box protein Pax-8): 0.264 µM (active); AC50 [2]: 3.88 µM (active); AC50 [3]: 1.49 µM (active); AC50 [4]: 1.48 µM (active); AC50 [5]: 1.23 µM (active); AC50 [6]: 1.89 µM (active)

Question: Which AC50 [7] does the source give for `CC[C@H]1CN2CCc3cc(OC)c(OC)cc3C2C[C@@H]1C[C@H]1NCCc2cc(OC)c(OC)cc21` (stereo partly specified) here?
Answer: < 0.26 µM (active)

Question: What about the AC50 [8] of the same compound?
Answer: < 0.26 µM (active)

Question: What about the IC50 [9] of the same compound?
Answer: 0.209 µM (active)

Question: What about the AC50 [10] of the same compound?
Answer: 0.0576 µM (active)

Question: And the AC50 [11]?
Answer: 0.0959 µM (active)

Question: And the AC50 [12]?
Answer: 0.257 µM (active)

Question: What about the AC50 [13] of the same compound?
Answer: 0.25 µM (active)

Question: What about the AC50 [14] of the same compound?
Answer: 0.0731 µM (active)

Question: With `CCCNC(=O)N1[C@H](C#N)[C@H](c2ccccc2-c2cccc(C)c2)[C@@H]1CO` as the compound, how does the AC50 [15] read?
Answer: 7.01 µM (active)

Question: For `Cc1c(NC(=O)c2cccnc2)c(=O)n(-c2ccccc2)n1C` [NIFENAZONE], which IC50 [16] is on record?
Answer: > 20 µM (inactive)

Question: And the IC50 [17]?
Answer: > 20 µM (inactive)

Question: What about the IC50 [18] of the same compound?
Answer: > 20 µM (inactive)

Question: What about the IC50 [19] of the same compound?
Answer: > 20 µM (inactive)

Question: And the IC50 [20]?
Answer: > 20 µM (inactive)

Question: What about the IC50 [21] of the same compound?
Answer: > 20 µM (inactive)

Question: And the IC50 [22]?
Answer: > 20 µM (inactive)

Question: With `OC[C@H]1[C@@H](c2ccc(-c3cccnc3)cc2)[C@@H]2CN(CC3CC3)CCCCN12` as the compound, how does the AC50 [23] read?
Answer: 1.9 µM (active)

Question: And the AC50 [24]?
Answer: 2.12 µM (active)

Question: What about the AC50 [25] of the same compound?
Answer: 1.8 µM (active)

Question: What about the AC50 [26] of the same compound?
Answer: 2.65 µM (active)

Question: What does the source list for `CC1(C)NC(=S)C(C)(C)N1N=O`?
Answer: IC50 [27]: > 67.5 µM (inactive); EC50 [28]: > 67.5 µM (inactive)

Question: For `O=C(O)CSCC(=O)Nc1ccc(-c2nc3ccccc3s2)cc1`, which IC50 [29] is on record?
Answer: 86.8 µM (active)

Question: For `COc1ccc(C#Cc2ccc([C@@H]3[C@H](CO)N4CCCCN(C(=O)Nc5ccc(F)cc5)C[C@@H]34)cc2)cc1`, which AC50 (Paired box protein Pax-8) is on record?
Answer: 15.5 µM (active)

Question: And the AC50 [3]?
Answer: 13.9 µM (active)

Question: What about the AC50 [6] of the same compound?
Answer: 41.2 µM (active)

Question: With `Fc1ccc(-c2cc(-c3cccs3)cc(-c3ccccc3)n2)cc1` as the compound, how does the IC50 [30] read?
Answer: > 123 µM (inactive)

Question: And the IC50 [31]?
Answer: > 123 µM (inactive)
